A short description of data set [1]: Determination of Stability at Acid pH (HPLC, 0.01N HCl). As to conditions: 0.01N HCl (pH 2), 37° C. The class given is physicochemical. The protocol: Determination of Stability at Acid pH
Test compounds (15 μg) were dissolved in 3 ml of 0.01N HCl (pH 2) and incubated at 37° C. […] The test compounds and their degradation products were monitored by UV absorption at 240 nm. Disappearance of the parent compound was expressed as a percent peak height relative to time zero, from which t1/2 values were determined graphically, as follows.

The conditions of data set [2]: cited from earlier work.
The test system of data set [3] is multidrug resistance. Conditions: anticancer drug potentiator; cited from earlier work.
For data set [4] the following is noted: cited from earlier work. The source holds these as a separate data set.
Data set [5] concerns multidrug resistance. As to conditions: compared with MS-073; cited from earlier work.
Data set [6] concerns drug-resistant malaria. Conditions: in vitro; cited from earlier work.

Where two headings read alike, the source gives them in different places. A value given as a limit tells only on which side of the number the result lay.

Usually half-life stands for how long it takes for the measured level to halve.

`OC(COc1cccc2ncccc12)CN1CCN(C2c3ccccc3C3C(c4ccccc42)C3(F)F)CC1` (racemic) [(2R,S)-5-{3-[4-(10,11-difluoromethanodibenzosuber-5-yl)piperazine-1-yl]-2-hydroxypropoxy}quinoline] yielded a half-life in data set [1] above 72 h. The same measure, in the same setting: the value for `OC(COc1cccc2ncccc12)CN1CCN([C@@H]2c3ccccc3[C@H]3C[C@H]3c3ccccc32)CC1` (relative stereo) [(2R,S)-anti-5-{3-[4-(10,11-methanodibenzosuber-5-yl)piperazin-1-yl]-2-hydroxypropoxy}quinoline] was 2.5 h. `OC(COc1cccc2ncccc12)CN1CCN(C2c3ccccc3C3C(Cl)C3c3ccccc32)CC1` [(2R,S)-anti-5-{3-[4-(10,11-chloromethanodibenzosuber-5-yl)piperazine-1-yl]-2-hydroxypropoxy}quinoline] yielded a t1/2 in data set [1] above 72 h.

As to `OC(COc1cccc2ncccc12)CN1CCN(C2c3ccccc3CCc3ccccc32)CC1` (stereo not shown) [MS-073], the oral bioavailability result in data set [2] (oral) is “poor oral bioavailability”. Also, the half-life in data set [1] is 0.25 h. The “activity in in vitro testing” value in data set [3] was “highly active”. For the same compound, in data set [4], the stability in solution entry is reported as “instability problems in solution”. With `O=C(C(c1ccccc1)c1ccccc1)N1CCN(CC(O)COc2cccc3ncccc23)CC1` (stereo not shown) [MS-209], the oral bioavailability result in data set [2] (in vivo, po) is “better stability and oral bioavailability”. For the same compound, the effective doses entry in data set [5] is reported as “higher effective doses”.

With `COc1ccc(CCN(C)CCCC(C#N)(c2ccc(OC)c(OC)c2)C(C)C)cc1OC` (stereo not shown) [verapamil], in data set [6], the “effect in treating drug-resistant malaria” value was “effective in vitro”.

The values above are taken from patent US5889007A, “10, 11-methanodibenzosuberane derivatives” (priority 1995, dated 1999).
